Laboratory results as given in PubChem BioAssay (NCI).
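Cells were grown in 96-well plates and exposed to each compound for 48 hours at five concentrations; endpoints were interpolated linearly between bracketing concentrations, or set to the highest concentration if not reached. Here, GI50 denotes the concentration required for 50% inhibition of growth. Definition used: TGI = concentration required for complete inhibition of growth.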

What was measured:
Test in all cases: NCI-60 cell line screen, 48 h
RPMI-8226 leukemia = test system: RPMI-8226 leukemia
SNB-19 CNS = test system: SNB-19 CNS
SNB-75 CNS = test system: SNB-75 CNS
SF-268 CNS = test system: SF-268 CNS
SF-539 CNS = test system: SF-539 CNS
CAKI-1 renal = test system: CAKI-1 renal
HT29 colon = test system: HT29 colon
LOX IMVI melanoma = test system: LOX IMVI melanoma
HL-60(TB) leukemia = test system: HL-60(TB) leukemia
HCT-116 colon = test system: HCT-116 colon

SMILES | GI50 (RPMI-8226 leukemia) | TGI (RPMI-8226 leukemia) | GI50 (SNB-19 CNS) | TGI (SNB-19 CNS) | TGI (SNB-75 CNS) | GI50 (SF-268 CNS) | TGI (SF-268 CNS) | GI50 (SF-539 CNS) | TGI (SF-539 CNS) | GI50 (CAKI-1 renal) | TGI (CAKI-1 renal) | GI50 (HT29 colon) | TGI (HT29 colon) | GI50 (LOX IMVI melanoma) | TGI (LOX IMVI melanoma) | GI50 (HL-60(TB) leukemia) | TGI (HL-60(TB) leukemia) | GI50 (HCT-116 colon) | TGI (HCT-116 colon) | GI50 (SNB-75 CNS)
CN1CCN(CC(=O)N(C)c2ccc(N=C(c3ccccc3)c3c(O)[nH]c4ccc(C#N)cc34)cc2)CC1 | 2.65 µM | 6.52 µM | 4.16 µM | 16.6 µM | 5.49 µM | 2.62 µM | 14.6 µM | 0.961 µM | 2.23 µM | 1.26 µM | 8.96 µM | 0.712 µM | 15 µM | 1.08 µM | 2.58 µM | 1.18 µM | 6.36 µM | 1.02 µM | 2.47 µM | 
CC(C)/C=C1\CCC(CN(C)C)C1=O (centres undefined) |  | 2.36 µM |  | 21.6 µM | 6.51 µM |  | 38.8 µM |  | 19.8 µM |  | 4.21 µM |  | 4.84 µM |  | 11.9 µM |  | 4.55 µM |  | 2.5 µM | 
Nc1nncc2c1c(Br)cn2C1OC(CO)C(O)C1O (centres undefined) |  | > 100 µM |  | > 100 µM | > 100 µM |  | > 100 µM |  | > 100 µM |  | > 100 µM |  | > 100 µM |  | > 100 µM |  | > 100 µM |  | > 100 µM | 
NC(=O)c1ccc2c(c1)-c1nc-2nc2[n-]c(nc3nc(nc4[n-]c(n1)c1ccc(C(N)=O)cc41)-c1ccc(C(N)=O)cc1-3)c1ccc(C(N)=O)cc21.[Co+2] | > 50 µM | > 50 µM | > 50 µM | > 50 µM | > 50 µM | > 50 µM | > 50 µM | 12.7 µM | 33.5 µM | > 50 µM | > 50 µM | > 50 µM | > 50 µM | 16.1 µM | > 50 µM | 7.12 µM | > 50 µM | > 50 µM | > 50 µM | > 50 µM
O=C(CS(=O)(=O)c1nc2ccccc2nc1-c1ccccc1)Nc1ccc(F)cc1 | 29.1 µM | > 100 µM | 98.9 µM | > 100 µM | > 100 µM | 91.8 µM | > 100 µM | 18.7 µM | 60.2 µM | > 100 µM | > 100 µM | 33.6 µM | > 100 µM | 36.7 µM | > 100 µM | 1.8 µM | 10.3 µM | 25.7 µM | > 100 µM | > 100 µM
c1ccc(-c2oc(-c3ccccc3)c(CN3CCCCC3)c2CN2CCCCC2)cc1 | 1.66 µM | 4.08 µM | 2.64 µM | 8.72 µM | 18.6 µM | 6.04 µM | 20.6 µM | 1.68 µM | 3.47 µM | 4.81 µM | 18.7 µM | 1.27 µM | 13.3 µM | 3.19 µM | 12.1 µM | 1.96 µM | 5.28 µM | 1.05 µM | 11.2 µM | 4.13 µM
CC(C)N(C(=O)C12C3C4C1C1C2C3C41C#N)C(C)C (centres undefined) |  | > 68.1 µM |  | > 100 µM | > 100 µM |  | > 100 µM |  | > 100 µM |  | > 100 µM |  | > 100 µM |  | > 67.2 µM |  | > 59 µM |  | > 100 µM | 
O=C1CC2OCC=C3CN4CCC56c7ccccc7N1C5C2C3CC46O (centres undefined) |  | > 100 µM |  | > 100 µM | > 100 µM |  | > 100 µM |  | > 100 µM |  | > 100 µM |  | > 100 µM |  | > 100 µM |  | > 100 µM |  | > 100 µM | 
O=C1NC(=S)S/C1=C\c1cn(-c2ccccc2)nc1-c1ccccc1 | 2.52 µM | 68.6 µM | 6.14 µM | > 100 µM | 51.3 µM | 17.2 µM | > 100 µM | 5.53 µM | 21.1 µM | 7.14 µM | 51.8 µM | 12.5 µM | 38.3 µM | 10 µM | 55.4 µM | 4.83 µM | 59.8 µM | 5.62 µM | 21.3 µM | 17.8 µM
C#Cc1cccc(Nc2ncnc3cc(NC(=O)CCl)ccc23)c1 | 1.26 µM | 6.15 µM | 2.96 µM | 6.03 µM | 5.01 µM | 3.3 µM | 8.55 µM | 3.48 µM | 6.82 µM | 1.78 µM | 6.06 µM | 1.06 µM | 5.74 µM | 0.74 µM | 2.97 µM | 4.45 µM | 11.3 µM | 1.19 µM | 4.15 µM | 1.53 µM
